Assay results published in US8791155B2, “Chroman derivatives” (Edison Pharmaceuticals, Inc., priority 2003, dated 2014).
pEC50: −log10 of the molar value.

Columns and labels:
Format in all cases: cell-based
[1] = tested on: FRDA fibroblasts; test: FRDA fibroblast assay for protection from oxidative stress (BSO); details: Homo sapiens, preincubation 24 h before 1 mM BSO, read-out: EC50, reduced cell death in FRDA fibroblasts compared to untreated FRDA fibroblasts
From the text: A cellular assay using FRDA-patient derived fibroblasts (as described by Jauslin, M L et al, Human Molecular Genetics 11; 3055-3063 (2002)); was used to determine the protective effects of the test compounds by analyzing survival of dermal fibroblasts taken from FRDA patients and unaffected normal donors under conditions of partial GSH depletion. Exposure of FRDA fibroblasts to BSO (L-buthionine (S,R)-sulfoximine) under conditions of restricted selenium causes depletion of cellular glutathione (GSH) and severe plasma membrane damage leading to cell death. Preincubation with the test compounds before the addition of BSO was used to determine if they could protect FRDA cells from BSO-mediated cell death.
Primary fibroblasts were derived from donors with a molecular diagnosis of FRDA and control donors with no mitochondria) disease. Lines F2, C2 and C3 were obtained from Coriell Cell Repositories (Camden, N.J., USA; catalog nos GM04078, GM 08402 and GM08399, respectively). All cell types were diagnosed at the molecular level for intronic GAA triplet repeat length in the frataxin gene using a PCR-based method, according to methods known in the art. […] The cells were seeded in 96-well plates at a density of 4000 cells per 100 pI in growth medium consisting of 25% (v/v) M199 EBS and 64% (v/v) MEM EBS without phenol red (Bioconcept, Allschwil, Switzerland) supplemented with 10% (v/v) fetal calf serum (PAA Laboratories, Linz, Austria), 100 U/ml penicillin, 100 μg/ml streptomycin (PAA Laboratories, Linz, Austria), 10 μg/ml insulin (Sigma, Buchs, Switzerland), 10 ng/ml EGF (Sigma, Buchs, Switzerland), 10 ng/ml bFGF (PreproTech, Rocky Hill, N.J., USA) and 2 mM glutamine (Sigma, Buchs, Switzerland). The cells were incubated in the presence of the various test compounds for 24 h before addition of 1 mM BSO (L-buthionine (S,R)-sulfoximine).
Cell viability was measured after the first signs of toxicity appeared in the BSO-treated controls (typically after 16-48 h). The cells were stained for 60 min at room temperature in PBS with 1.2 μm calceinAM and 4 pm ethidium homodimer (Live/Dead assay, Molecular Probes, Eugene, Oreg., USA). Fluorescence intensity was measured with a Gemini Spectramax XS spectrofluorimeter (Molecular Devices, Sunnyvale, Calif., USA) using excitation and emission wavelengths of 485 and 525 nm, respectively.

[2] = tested on: dopaminergic neuronal cell line; test: High glutamate-induced oxidative stress assay (HGOS); details: Mus musculus; 30 mM glutamate, 16 hrs; read-out: EC50, protection against HGOS cell injury and cell death
From the text: Protection against redox stress can be evaluated in cell culture using high glutamate induced oxidative stress (HGOS) in mouse dopaminergic cell lines. The cytotoxic effect of glutamate is not due to excitotoxicity, as this cell line is devoid of inotropic glutamate receptors. Rather, the glutamate-induced toxicity of dopaminergic cells is associated with an inhibition of cystine transport which subsequently leads to depletion of intracellular glutathione (GSH) levels (Murphy T. H., et al. Neuron 2, 1547-1558, 1989), activation of neuronal 12-lipoxygenase (Li, Y. et al., Neuron 19, 453-463, 1997), increased ROS production (Tan S. et al., J. Cell Biol. 141, 1423-1432, 1998) and elevated intracellular Cat^2+ (Li, Y. et al., see supra). Some molecules were measured for their ability to protect cells against glutamate-induced stress and the assay is detailed in Examples.
This procedure was used to induce high glutamate-induced oxidative stress (HGOS) in a dopaminergic neuronal cell line. Using this assay the potency and efficacy of test articles against HGOS neuronal cell injury and cell death was established in a high throughput manner.
• Dopaminergic neuronal cell lines • DMEM-No Glucose (Life Technologies Cat #11966-025) • L-glutamine (Life Technologies Cat #25030-081) • L-glutamic acid, monosodium salt (Sigma Cat #G5889) • D-glucose (Sigma Cat #G-6151) • 10×HBSS buffer (pH 7.4) (950 ml Pyrogen-free water, 2.44 g/L MgCl2.6H20, 3.73 g/L KCl, 59.58 g/L Hepes, 58.44 g/L NaCl, 1.36 g/L KH2PO4, 1.91 g/L CaCl2.2H2O and pH to […] with HCl) • Cell Tracker Green fluorescent dye (Molecular Probes, Cat #2925). Prepare a 5NM solution in pre-warmed HBSS just prior to use. • Sterile 96-well plates precoated with poly-D-lysine (Corning Catalog #3665) • 96-well deep well mother plate, DyNA Block 1000 (VWR Catalog #40002-008) Neuronal Cells
The cells were seeded into 96-well plates at a density of 2000 per well and left to grow for 72 hours in a 33° C. incubator with 5% CO2 in air atmosphere. The passage number of the cells for each assay experiment were no later than p11 in order to minimize experimental variation.
All compounds were dissolved in DMEM-No Glu containing 1 mM glucose, 30 mM glutamate and 1× Pen/Strep. DMEM-No Glu with 1 mM glucose and 1× P/S was used as the negative control, DMEM-No Glucose with 1 mM glucose, […] glutamate was used as a positive control and 100 NM Glutathione was added to the positive control as a standard. All of the procedures for this involving the making and dilution of compounds were performed using aseptic conditions and with minimal light.
The plates were removed from the incubator and examined under the microscope for morphological appearance and density. Using an aseptic technique and an 8-channel aspirator the media was carefully removed from the cells and replaced with 200 μI of 1×HBSS. This was done as quickly as possible to prevent the cells drying out. The plates were then placed in the humidified 37° C. incubators of the Biomek 2000 Side Loader. Four plates were washed at a time so as to minimize the time that the cells were sitting in 1×HBSS prior to addition of the compound test solution. Experimental Setup
The Beckman Biomek workstations were used to load the compounds and controls from the mother plates onto the cell plates that were prewashed with HBSS under sterile conditions. The plates were incubated in the upper HTS incubator at 37° C. in 5% CO2 for exactly 16 hrs. The following day, using the Beckman Biomek workstations, the plates were removed from the incubator. Using Cell Tracker Addition, the compounds were removed from the plates, washed once with […] of pre-warmed 1×HBSS and then 100 μL of 5 μM Cell Tracker Green was added to each well. The plates were incubated at 37° C. for 30 min to allow the dye to enter the cell and be cleaved by the esterases. […]

[3] = tested on: IL-1β release from a mouse microglial cell line; test: Interleukin-1β microglial cell assay (LPS / IFN gamma); details: LPS (10 μg/ml) and IFN gamma (10 ng/ml), 24 hours, read-out: EC50, inhibition of IL-1 beta induction
Procedure: This assay measures the release of IL-1β from a mouse microglial cell line following an inflammatory challenge with LPS and interferon-gamma. The ability of test articles to inhibit microglial cell activation and IL-1β release is determined by co-incubation of the test article with the inflammatory challenge.
Mouse microglial cells were seeded in poly-D-lysine coated 96-well plates at a density of 10,000 cells/well and allowed to attach for 24 hours. Cells were stimulated by addition of LPS (10 μg/ml) and IFN gamma (10 ng/ml) in the presence or absence of test article. The cells were then incubated for 24 hours at 37° C., after which time the media was removed and used for cytokine determination as described below.
Viability of mouse microglial cells after exposure to the test article was determined using a fluorescent viability dye, Cell Tracker Green. Cell Tracker Green was used at a working concentration of 5 μM in 1×HBSS. Cells were washed once with HBSS (200 μl/well) and 100 μl Cell Tracker Green was added to each well. Cells were then incubated at 37° C. for 30 minutes, after which time the Cell Tracker was removed and the cells were washed once with HBSS (200 μl/well). 100 pl fresh HBSS was added to each well and the plate was read on a Fluoroskan plate reader using an excitation wavelength of 485 nm and an emission wavelength of 538 nm.
1. […]
• The Costar EIA Hi-binding plate was coated with capture antibody at 4 μg/ml. […] Each well was filled to the top, dispensed, and any remaining buffer was removed by inverting the plate and gently blotting against clean paper towels. • Non-specific binding sites were blocked by adding 300 μl of Blocking Buffer to each well, and after sealing incubating for at least 1 hour at room temperature. • After washing the plate was now ready for the samples. […] 100 μl of this Substrate Solution mixture was added to each well and the plate was incubated in the dark for 20 minutes at room temperature. • 50 μl of Stop Solution was added to each well, mixing was ensured by gently tapping. • Each plate was read with the Spectramax once at 450 nm. […]

pEC50 [3] | Structure (SMILES) | pEC50 [1] | pEC50 [2]
– | Cc1c(C)c2c(c(CSC3CCCC3)c1O)CCC(C)(C)O2 [5-Cyclopentylsulfanylmethyl-2,2,7,8-tetramethyl-chroman-6-ol] | 5.22 to 8.00 | > 5.30
– | CCCCCCSCc1c(O)c(C)c(C)c2c1CCC(C)(C)O2 [5-Hexylsulfanylmethyl-2,2,7,8-tetramethyl-chroman-6-ol] | 5.22 to 8.00 | > 5.30
≥ 4.70 | Cc1cc(C)nc(SCc2c(O)c(C)c(C)c3c2CCC(C)(C)O3)n1 [5-(4,6-Dimethyl-pyrimidin-2-ylsulfanylmethyl)-2,2,7,8-tetramethyl-chroman-6-ol] | – | > 5.30
– | Cc1c(C)c2c(c(CSCC(C)C(=O)N3CCCC3C(=O)O)c1O)CCC(C)(CCCC(C)CCCC(C)CCCC(C)C)O2 (centres unmarked) [1-{3-[6-Hydroxy-2,7,8-trimethyl-2-(4,8,12-trimethyl-tridecyl)-chroman-5-ylmethylsulfanyl]-2-methyl-propionyl}-pyrrolidine-2-carboxylic acid] | 5.22 to 8.00 | > 5.30
